Laboratory results published in patent US20220389013A1, “PYRIDOPYRIMIDINONE COMPOUNDS AND APPLICATIONS THEREOF” (BeBetter Med Inc., priority 2020, published 2022).

What was measured:
[1] = test system: H23 (KRAS G12C); experiment: Tumor cell proliferation inhibition assay (CellTiter-Glo), H23; format: cell-based, Human; conditions: 72 hours, 10% fetal bovine serum
Procedure: (§1) The H358, H23 or MIA-Paca2 cells were digested, centrifuged and resuspended, and the cell density was measured with a Scepter automatic cell counter. Cells were diluted to a solution containing 44,000 cells per milliliter, then added to a 96-well culture plate at 90 μL per well. The 96-well plate was placed in a 5% CO2 incubator at 37° C., and after the cells were cultured for 24 hours, different concentrations of the compounds to be tested were added. Cells were incubated with compounds in the presence of 10% fetal bovine serum for 72 hours. The inhibition of cell growth was assessed by measuring ATP levels by using the CellTiter-Glo Luminescent Cell Viability Assay Kit (details in manufacturer's instructions). In brief, 30 μL of CellTiter-Glo reagent was added to each well and the plate was shaken for 10 minutes to induce cell lysis, then the fluorescent signal was detected and recorded with a Fluoroskan Ascent FL (Thermo). Maximum signal values were obtained from cells treated with DMSO for 72 hours. Minimum signal values were obtained with medium only (zero cell number). Inhibition rate %=(maximum signal value-compound signal value)/(maximum signal value-minimum signal value)×100%. Data were processed by using Graphpad prism5 software. IC50 values were calculated using a sigmoidal dose-response curve.

[2] = test system: MIA-Paca2 (KRAS G12C); experiment: Tumor cell proliferation inhibition assay (CellTiter-Glo), MIA-Paca2; format: cell-based, Human; conditions: 10% fetal bovine serum
Procedure: as §1

[3] = test system: H358 (KRAS G12C); experiment: Tumor cell proliferation inhibition assay (CellTiter-Glo), H358; format: cell-based, Human; conditions: 10% fetal bovine serum
Procedure: as §1

[4] = Pharmacokinetic (PK) experiment in rats by gavage; format: in vivo; conditions: rat, plasma, po, male SD rats, 20 mg/kg
Procedure: Male SD rats, weighing 180-250 g, were fasted overnight before the test and stomach administrated with the test compound at 20 mg/kg. 15 minutes, 30 minutes, and 1, 2, 4, 6, 8, and 24 hours after administration, blood was taken from the end of the tail of the fracture, about 0.3 mL per time point, then placed in a centrifuge tube containing K2-EDTA, and centrifuged (2000 g, 10 min, at 4° C.). Plasma was collected and stored in an ultra-low temperature freezer at −80° C. 50 μL of plasma samples were vortexed with 135 μL of acetonitrile (containing 1 μg/mL internal standard) for protein precipitation and centrifuged, and the supernatant was collected for LC-MS/MS analysis.
After the rats oral administrated with the Pyridopyrimidinone compounds provided by the present disclosure, the absorption is good, and the blood exposure is relatively high. […] Cmax refers to the maximum plasma concentration, T1/2 is the half-life, AUC0-24 refers to the area under the 0-24 hour time-concentration curve, and AUC0-inf refers to the area under the 0-Inf time-concentration curve.

melting point | IC50 ([2]; Homo sapiens, MIA PaCa-2, 72 h) | IC50 ([3]; Homo sapiens, NCI-H358, 72 h) | SMILES | also measured
– | – | – | C=CC(=O)N1CCN(c2nc(=O)n(-c3c(C)ccnc3C(C)C)c3nc(-c4c(F)c(F)cc5ccoc45)c(F)cc23)[C@@H](C)C1 (atropisomer, axis not shown; (P)) [Compound 74-2, 4-((S)-4-acryloyl-2-methylpiperazin-1-yl)-7-(5,6-difluorobenzofuran-7-yl)-6-fluoro-1(P)-(2-isopropyl-4-methylpyridin-3-yl)pyrido[2,3-d]pyrimidin-2(1H)-one] | IC50 [1]: 100 to 500 nM; IC50 ([2]; 72 hours): > 500 nM; IC50 ([3]; 72 hours): > 500 nM
– | – | – | C=CC(=O)N1CCN(c2nc(=O)n(-c3c(C)ccnc3C(C)C)c3nc(-c4c(F)c(F)cc5ccoc45)c(Cl)cc23)[C@@H](C)C1 (atropisomer, axis not shown; (P)) [Compound 103-2, 4-((S)-4-acryloyl-2-methylpiperazin-1-yl)-6-chloro-7-(5,6-difluorobenzofuran-7-yl)-1(P)-(2-isopropyl-4-methylpyridin-3-yl)pyrido[2,3-d]pyrimidin-2(1H)-one] | IC50 [1]: 10 to 50 nM; IC50 ([2]; 72 hours): 100 to 500 nM; IC50 ([3]; 72 hours): 100 to 500 nM
148 to 150 °C | 50 to 100 nM | 10 to 50 nM | C=CC(=O)N1CCN(c2nc(=O)n(-c3c(C)ccnc3C(C)C)c3nc(-c4c(F)ccc5ccsc45)c(F)cc23)[C@@H](C)C1 [Compound 71, 4-((S)-4-Acryloyl-2-methylpiperazin-1-yl)-6-fluoro-7-(6-fluorobenzo[b]thiophen-7-yl)-1-(2-isopropyl-4-methylpyridin-3-yl)pyrido[2,3-d]pyrimidin-2(1H)-one] | –
– | – | – | C=CC(=O)N1CCN(c2nc(=O)n(-c3c(C)ccnc3C(C)C)c3nc(-c4c(F)c(F)cc5ccoc45)c(F)cc23)[C@@H](C)C1 [Compound 74, 4-((S)-4-acryloyl-2-methylpiperazin-1-yl)-7-(5,6-difluorobenzofuran-7-yl)-6-fluoro-1-(2-isopropyl-4-methylpyridin-3-yl)pyrido[2,3-d]pyrimidin-2(1H)-one] | IC50 [1]: < 10 nM; IC50 ([2]; 72 hours): 50 to 100 nM; IC50 ([3]; 72 hours): 10 to 50 nM
158 to 162 °C | > 500 nM | 100 to 500 nM | C=CC(=O)N1CCN(c2nc(=O)n(-c3c(C)ccnc3C(C)C)c3nc(-c4c(F)ccc5ncsc45)c(F)cc23)[C@@H](C)C1 [Compound 78, 4-((S)-4-acryloyl-2-methylpiperazin-1-yl)-6-fluoro-7-(6-fluorobenzo[d]thiazol-7-yl)-1-(2-isopropyl-4-methylpyridin-3-yl)pyrido[2,3-d]pyrimidin-2(1H)-one] | –
151 to 163 °C | 100 to 500 nM | 10 to 50 nM | C=CC(=O)N1CCN(c2nc(=O)n(-c3c(C)ccnc3C(C)C)c3nc(-c4c(C)ccc5ccoc45)c(F)cc23)[C@@H](C)C1 [Compound 108, 4-((S)-4-acryloyl-2-methylpiperazin-1-yl)-6-fluoro-1-(2-isopropyl-4-methylpyridin-3-yl)-7-(6-methylbenzofuran-7-yl)pyrido[2,3-d]pyrimidin-2(1H)-one] | –
156 to 158 °C | 100 to 500 nM | 50 to 100 nM | C=CC(=O)N1CCN(c2nc(=O)n(-c3c(C)ccnc3C(C)C)c3nc(-c4c(OC)ccc5ccoc45)c(F)cc23)[C@@H](C)C1 [Compound 109, 4-((S)-4-acryloyl-2-methylpiperazin-1-yl)-6-fluoro-1-(2-isopropyl-4-methylpyridin-3-yl)-7-(6-methoxybenzofuran-7-yl)pyrido[2,3-d]pyrimidin-2(1H)-one] | –
155 to 157 °C | > 500 nM | > 500 nM | C/C=C/C(=O)N1CCN(c2nc(=O)n(-c3c(C)ccnc3C(C)C)c3nc(-c4cc5ccoc5cc4F)c(F)cc23)[C@@H](C)C1 [Compound 113, (S,E)-4-(4-(but-2-enoyl)-2-methylpiperazin-1-yl)-6-fluoro-7-(6-fluorobenzofuran-5-yl)-1-(2-isopropyl-4-methylpyridin-3-yl)pyrido[2,3-d]pyrimidin-2(1H)-one] | –
162 to 164 °C | > 500 nM | > 500 nM | Cc1ccnc(C(C)C)c1-n1c(=O)nc(N2CCN(C(=O)/C=C/CN(C)C)C[C@@H]2C)c2cc(F)c(-c3cc4ccoc4cc3F)nc21 [Compound 114, (S,E)-4-(4-(4-(dimethylamino)but-2-enoyl)-2-methylpiperazin-1-yl)-6-fluoro-7-(6-fluorobenzofuran-5-yl)-1-(2-isopropyl-4-methylpyridin-3-yl)pyrido[2,3-d]pyrimidin-2(1H)-one] | –
136 to 138 °C | > 500 nM | > 500 nM | COC/C=C/C(=O)N1CCN(c2nc(=O)n(-c3c(C)ccnc3C(C)C)c3nc(-c4cc5ccoc5cc4F)c(F)cc23)[C@@H](C)C1 [Compound 115, (S,E)-6-fluoro-7-(6-fluorobenzofuran-5-yl)-1-(2-isopropyl-4-methylpyridin-3-yl)-4-(4-(4-methoxybut-2-enoyl)-2-methylpiperazin-1-yl)pyrido[2,3-d]pyrimidin-2(1H)-one] | –
143 to 146 °C | 100 to 500 nM | 50 to 100 nM | C=CC(=O)N1CCN(c2nc(=O)n(-c3c(C)ncnc3C(C)C)c3nc(-c4c(F)ccc5ccoc45)c(F)cc23)[C@@H](C)C1 [Compound 116, 4-((S)-4-acryloyl-2-methylpiperazin-1-yl)-6-fluoro-7-(6-fluorobenzofuran-7-yl)-1-(4-isopropyl-6-methylpyrimidin-5-yl)pyrido[2,3-d]pyrimidin-2(1H)-one] | –
133 to 136 °C | 50 to 100 nM | 50 to 100 nM | C=CC(=O)N1CCN(c2nc(=O)n(-c3c(C)nc(C)nc3C(C)C)c3nc(-c4c(F)ccc5ccoc45)c(F)cc23)[C@@H](C)C1 [Compound 117, 4-((S)-4-acryloyl-2-methylpiperazin-1-yl)-6-fluoro-7-(6-fluorobenzofuran-7-yl)-1-(4-isopropyl-2,6-dimethylpyrimidin-5-yl)pyrido[2,3-d]pyrimidin-2(1H)-one] | –
254 to 256 °C | – | < 10 nM | C=CC(=O)N1CCN(c2nc(=O)n(-c3c(C(C)C)ncnc3C(C)C)c3nc(-c4c(F)ccc5ccoc45)c(Cl)cc23)[C@@H](C)C1 [Compound 118, 4-((S)-4-acryloyl-2-methylpiperazin-1-yl)-6-chloro-1-(4,6-diisopropylpyrimidin-5-yl)-7-(6-fluorobenzofuran-7-yl)pyrido[2,3-d]pyrimidin-2(1H)-one] | –
146 to 149 °C | 50 to 100 nM | 10 to 50 nM | C=CC(=O)N1CCN(c2nc(=O)n(-c3c(C#N)cccc3C(C)C)c3nc(-c4c(F)ccc5ccoc45)c(F)cc23)[C@@H](C)C1 [Compound 123, 2-(4-((S)-4-acryloyl-2-methylpiperazin-1-yl)-6-fluoro-7-(6-fluorobenzofuran-7-yl)-2-oxopyrido[2,3-d]pyrimidin-1(2H)-yl)-3-isopropylbenzonitrile] | –
164 to 166 °C | 10 to 50 nM | < 10 nM | C=CC(=O)N1CCN(c2nc(=O)n(-c3c(C#N)cccc3C(C)C)c3nc(-c4c(F)ccc5ccoc45)c(Cl)cc23)[C@@H](C)C1 [Compound 124, 2-(4-((S)-4-acryloyl-2-methylpiperazin-1-yl)-6-chloro-7-(6-fluorobenzofuran-7-yl)-2-oxopyrido[2,3-d]pyrimidin-1(2H)-yl)-3-isopropylbenzonitrile] | –
146 to 149 °C | 100 to 500 nM | 50 to 100 nM | C=CC(=O)N1CCN(c2nc(=O)n(-c3c(CO)cccc3C(C)C)c3nc(-c4c(F)ccc5ccoc45)c(F)cc23)[C@@H](C)C1 [Compound 126, 4-((S)-4-acryloyl-2-methylpiperazin-1-yl)-6-fluoro-7-(6-fluorobenzofuran-7-yl)-1-(2-(hydroxymethyl)-6-isopropylphenyl)pyrido[2,3-d]pyrimidin-2(1H)-one] | –

SMILES | melting point | IC50 ([2]; Homo sapiens, MIA PaCa-2, 72 h) | IC50 ([3]; Homo sapiens, NCI-H358, 72 h) | also measured
C=CC(=O)N1C[C@H](C)N(c2nc(=O)n(-c3c(C)ccnc3C(C)C)c3nc(-c4c(F)ccc5ccoc45)c(F)cc23)C[C@H]1C [Compound 89, 4-((2S,5R)-4-acryloyl-2,5-dimethylpiperazin-1-yl)-6-fluoro-7-(6-fluorobenzofuran-7-yl)-1-(2-isopropyl-4-methylpyridin-3-yl)pyrido[2,3-d]pyrimidin-2(1H)-one] | 147 to 149 °C | – | 10 to 50 nM | AUC(0-inf) [4]: 14100 ng·h/mL; Cmax [4]: 4300 ng/mL; Tmax [4]: 1 h; half-life [4]: 127 min; AUC(0-t) ([4]; read-out: AUC0-24): 14000 ng·h/mL; IC50 ([2]; 72 hours): 10 to 50 nM
